Targets include INSR (Homo sapiens, UniProt P06213); EPHA2 (Homo sapiens, UniProt P29317); ERBB2 (Homo sapiens, UniProt P04626); NEK7 (Homo sapiens, UniProt Q8TDX7).
Experiment in all cases: biochemical
Common to all, as to design: KINOMEscan scanMAX competition binding, DNA-tagged kinases, qPCR read-out, percent control at 300 nM
Background: Quantitative PCR measures a nucleic acid by following its amplification.

The next experiment deals with T1, RIPK5 (Homo sapiens, UniProt Q6XUX3).
T1 construct: gene DSTYK
T1 sequence (Q6XUX3 1-929): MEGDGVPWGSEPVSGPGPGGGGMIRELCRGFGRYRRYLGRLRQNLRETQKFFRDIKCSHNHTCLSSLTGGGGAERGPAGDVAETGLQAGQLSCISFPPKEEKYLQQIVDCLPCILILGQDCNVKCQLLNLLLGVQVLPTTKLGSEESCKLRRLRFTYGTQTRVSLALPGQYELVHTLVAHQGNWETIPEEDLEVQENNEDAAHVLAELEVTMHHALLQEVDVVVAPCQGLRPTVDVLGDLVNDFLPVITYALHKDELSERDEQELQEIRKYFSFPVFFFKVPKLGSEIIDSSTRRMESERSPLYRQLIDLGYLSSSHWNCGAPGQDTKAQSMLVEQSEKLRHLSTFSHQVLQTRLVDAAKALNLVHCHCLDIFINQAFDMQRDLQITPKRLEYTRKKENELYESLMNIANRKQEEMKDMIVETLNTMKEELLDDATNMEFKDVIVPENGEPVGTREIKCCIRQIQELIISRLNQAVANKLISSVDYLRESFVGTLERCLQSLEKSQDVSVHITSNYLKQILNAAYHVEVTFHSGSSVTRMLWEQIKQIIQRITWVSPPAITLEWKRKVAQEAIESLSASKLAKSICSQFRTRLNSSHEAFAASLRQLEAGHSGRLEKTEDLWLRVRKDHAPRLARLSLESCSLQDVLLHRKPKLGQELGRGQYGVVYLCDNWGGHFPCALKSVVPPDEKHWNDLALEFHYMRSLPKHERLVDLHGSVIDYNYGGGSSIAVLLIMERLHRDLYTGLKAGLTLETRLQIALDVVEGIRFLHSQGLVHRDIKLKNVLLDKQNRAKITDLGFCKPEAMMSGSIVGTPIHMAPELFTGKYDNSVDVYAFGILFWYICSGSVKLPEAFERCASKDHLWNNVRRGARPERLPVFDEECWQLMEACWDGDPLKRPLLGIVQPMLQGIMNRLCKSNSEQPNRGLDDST

Experiment [1] addresses T2, JAK1(JH1domain-catalytic) (Homo sapiens, UniProt P23458).
T2 construct: JH1domain-catalytic

In the next experiment the target is T3, TRKB (Homo sapiens, UniProt Q16620).
T3 construct: gene NTRK2
T3 sequence (Q16620 whole entry): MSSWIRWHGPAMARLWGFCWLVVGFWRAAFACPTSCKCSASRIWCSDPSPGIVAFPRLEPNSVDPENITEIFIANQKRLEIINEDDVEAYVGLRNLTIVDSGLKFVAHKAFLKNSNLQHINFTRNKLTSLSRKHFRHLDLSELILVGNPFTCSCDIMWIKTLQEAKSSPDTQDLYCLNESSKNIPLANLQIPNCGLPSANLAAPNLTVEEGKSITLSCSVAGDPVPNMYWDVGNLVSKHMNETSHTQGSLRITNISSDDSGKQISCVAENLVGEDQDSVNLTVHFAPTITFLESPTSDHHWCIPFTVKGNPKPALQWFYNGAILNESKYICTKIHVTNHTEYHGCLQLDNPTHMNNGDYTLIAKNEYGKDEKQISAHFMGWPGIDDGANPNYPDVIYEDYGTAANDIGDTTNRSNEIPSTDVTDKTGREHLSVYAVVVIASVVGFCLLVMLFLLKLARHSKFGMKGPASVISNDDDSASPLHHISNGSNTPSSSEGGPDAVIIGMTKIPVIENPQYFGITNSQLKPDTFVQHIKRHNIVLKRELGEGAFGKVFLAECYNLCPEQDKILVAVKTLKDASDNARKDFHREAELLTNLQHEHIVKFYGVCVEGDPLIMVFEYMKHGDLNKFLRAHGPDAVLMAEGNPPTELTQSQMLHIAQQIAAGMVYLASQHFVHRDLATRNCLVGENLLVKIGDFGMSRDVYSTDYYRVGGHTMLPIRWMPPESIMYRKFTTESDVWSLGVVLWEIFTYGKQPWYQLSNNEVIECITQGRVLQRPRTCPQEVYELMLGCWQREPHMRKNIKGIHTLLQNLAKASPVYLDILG

The target of a further experiment is T4, PIP5K2C (Homo sapiens, UniProt Q8TBX8).
T4 construct: gene PIP4K2C
T4 sequence (Q8TBX8 1-421): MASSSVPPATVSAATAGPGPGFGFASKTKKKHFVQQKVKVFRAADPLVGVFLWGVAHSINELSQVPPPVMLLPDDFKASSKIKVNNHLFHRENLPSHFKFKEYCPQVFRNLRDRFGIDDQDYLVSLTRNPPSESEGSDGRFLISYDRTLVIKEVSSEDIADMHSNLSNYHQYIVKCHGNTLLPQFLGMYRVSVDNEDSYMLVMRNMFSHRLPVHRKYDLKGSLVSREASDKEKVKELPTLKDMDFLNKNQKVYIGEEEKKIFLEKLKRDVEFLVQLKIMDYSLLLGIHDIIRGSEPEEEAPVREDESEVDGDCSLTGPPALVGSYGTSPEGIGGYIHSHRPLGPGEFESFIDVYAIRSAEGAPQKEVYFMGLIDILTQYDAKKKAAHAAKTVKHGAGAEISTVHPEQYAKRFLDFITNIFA

[2] abbreviates: read-out: Percent control / Zanubrutinib.
The mark [3] stands for this setting: read-out: Percent control / Tirabrutinib.
Where [4] appears, read: read-out: Percent control / Ibrutinib.
Setting [5] is: read-out: Percent control / Acalabrutinib.

Molecules are shown by their SMILES. Where two headings read alike, the source gives them in different places.

T2 sequence (P23458 whole entry): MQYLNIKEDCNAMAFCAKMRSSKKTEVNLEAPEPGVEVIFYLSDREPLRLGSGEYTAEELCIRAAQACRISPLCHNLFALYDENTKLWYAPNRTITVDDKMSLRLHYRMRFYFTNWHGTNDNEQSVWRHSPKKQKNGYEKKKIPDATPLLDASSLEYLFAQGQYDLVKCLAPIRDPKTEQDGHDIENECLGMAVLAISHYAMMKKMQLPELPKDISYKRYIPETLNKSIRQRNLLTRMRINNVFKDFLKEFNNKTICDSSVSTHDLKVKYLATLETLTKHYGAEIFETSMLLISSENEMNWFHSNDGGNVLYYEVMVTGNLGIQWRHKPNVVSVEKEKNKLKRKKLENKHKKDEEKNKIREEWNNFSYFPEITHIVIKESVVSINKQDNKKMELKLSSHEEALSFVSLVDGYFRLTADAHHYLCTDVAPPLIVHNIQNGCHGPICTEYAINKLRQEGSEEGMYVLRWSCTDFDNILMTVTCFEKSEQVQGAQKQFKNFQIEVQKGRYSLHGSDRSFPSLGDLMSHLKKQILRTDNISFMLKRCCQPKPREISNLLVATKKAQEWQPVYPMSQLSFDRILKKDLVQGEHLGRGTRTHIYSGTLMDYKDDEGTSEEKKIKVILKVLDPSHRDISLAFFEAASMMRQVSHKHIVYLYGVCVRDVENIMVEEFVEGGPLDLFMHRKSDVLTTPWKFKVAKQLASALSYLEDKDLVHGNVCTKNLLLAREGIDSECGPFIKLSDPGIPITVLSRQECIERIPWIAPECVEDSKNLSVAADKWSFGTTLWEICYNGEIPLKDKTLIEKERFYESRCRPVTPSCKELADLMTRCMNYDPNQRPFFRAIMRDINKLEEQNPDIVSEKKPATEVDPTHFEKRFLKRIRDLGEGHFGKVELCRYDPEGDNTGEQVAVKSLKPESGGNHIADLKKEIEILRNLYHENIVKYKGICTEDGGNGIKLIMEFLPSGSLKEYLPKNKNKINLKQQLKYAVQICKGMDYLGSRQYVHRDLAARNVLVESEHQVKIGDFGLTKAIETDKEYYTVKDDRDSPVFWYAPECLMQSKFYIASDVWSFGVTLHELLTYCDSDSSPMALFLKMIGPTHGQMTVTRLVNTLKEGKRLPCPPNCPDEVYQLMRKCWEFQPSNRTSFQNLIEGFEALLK
Sequence of INSR (P06213 whole entry): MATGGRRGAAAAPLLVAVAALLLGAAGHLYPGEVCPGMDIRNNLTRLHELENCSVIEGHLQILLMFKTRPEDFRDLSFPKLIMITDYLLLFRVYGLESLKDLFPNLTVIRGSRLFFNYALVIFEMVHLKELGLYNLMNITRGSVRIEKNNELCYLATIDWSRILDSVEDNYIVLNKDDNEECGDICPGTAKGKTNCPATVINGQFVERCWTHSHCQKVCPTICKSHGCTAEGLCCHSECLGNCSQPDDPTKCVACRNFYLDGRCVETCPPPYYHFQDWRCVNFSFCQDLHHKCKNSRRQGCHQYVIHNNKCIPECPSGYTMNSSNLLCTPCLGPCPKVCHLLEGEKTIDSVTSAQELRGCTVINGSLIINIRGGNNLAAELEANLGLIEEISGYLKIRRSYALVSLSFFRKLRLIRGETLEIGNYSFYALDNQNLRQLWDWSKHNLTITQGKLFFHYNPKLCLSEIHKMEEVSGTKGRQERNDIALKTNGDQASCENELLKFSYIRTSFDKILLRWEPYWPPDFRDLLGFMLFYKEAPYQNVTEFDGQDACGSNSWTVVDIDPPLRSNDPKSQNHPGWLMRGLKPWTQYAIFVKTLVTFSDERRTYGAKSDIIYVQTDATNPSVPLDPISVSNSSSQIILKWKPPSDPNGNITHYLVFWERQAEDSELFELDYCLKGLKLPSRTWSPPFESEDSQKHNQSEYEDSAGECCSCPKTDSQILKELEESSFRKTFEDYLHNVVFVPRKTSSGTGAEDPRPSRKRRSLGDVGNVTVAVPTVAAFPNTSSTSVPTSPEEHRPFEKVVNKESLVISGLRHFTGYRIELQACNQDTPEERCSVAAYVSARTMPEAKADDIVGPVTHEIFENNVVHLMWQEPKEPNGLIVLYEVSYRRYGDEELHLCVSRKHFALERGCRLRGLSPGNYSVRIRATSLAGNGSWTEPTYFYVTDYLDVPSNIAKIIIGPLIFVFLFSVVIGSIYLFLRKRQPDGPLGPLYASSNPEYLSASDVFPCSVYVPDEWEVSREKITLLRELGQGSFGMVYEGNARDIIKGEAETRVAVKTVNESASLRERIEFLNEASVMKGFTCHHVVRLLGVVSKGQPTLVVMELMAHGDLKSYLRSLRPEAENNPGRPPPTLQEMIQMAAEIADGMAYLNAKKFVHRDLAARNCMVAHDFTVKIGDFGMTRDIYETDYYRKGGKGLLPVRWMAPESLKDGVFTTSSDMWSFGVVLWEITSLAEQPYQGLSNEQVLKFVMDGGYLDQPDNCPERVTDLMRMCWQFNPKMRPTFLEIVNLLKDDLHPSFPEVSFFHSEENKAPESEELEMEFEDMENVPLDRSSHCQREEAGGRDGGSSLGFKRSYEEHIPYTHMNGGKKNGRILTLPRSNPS
Sequence of ERBB2 (P04626 whole entry): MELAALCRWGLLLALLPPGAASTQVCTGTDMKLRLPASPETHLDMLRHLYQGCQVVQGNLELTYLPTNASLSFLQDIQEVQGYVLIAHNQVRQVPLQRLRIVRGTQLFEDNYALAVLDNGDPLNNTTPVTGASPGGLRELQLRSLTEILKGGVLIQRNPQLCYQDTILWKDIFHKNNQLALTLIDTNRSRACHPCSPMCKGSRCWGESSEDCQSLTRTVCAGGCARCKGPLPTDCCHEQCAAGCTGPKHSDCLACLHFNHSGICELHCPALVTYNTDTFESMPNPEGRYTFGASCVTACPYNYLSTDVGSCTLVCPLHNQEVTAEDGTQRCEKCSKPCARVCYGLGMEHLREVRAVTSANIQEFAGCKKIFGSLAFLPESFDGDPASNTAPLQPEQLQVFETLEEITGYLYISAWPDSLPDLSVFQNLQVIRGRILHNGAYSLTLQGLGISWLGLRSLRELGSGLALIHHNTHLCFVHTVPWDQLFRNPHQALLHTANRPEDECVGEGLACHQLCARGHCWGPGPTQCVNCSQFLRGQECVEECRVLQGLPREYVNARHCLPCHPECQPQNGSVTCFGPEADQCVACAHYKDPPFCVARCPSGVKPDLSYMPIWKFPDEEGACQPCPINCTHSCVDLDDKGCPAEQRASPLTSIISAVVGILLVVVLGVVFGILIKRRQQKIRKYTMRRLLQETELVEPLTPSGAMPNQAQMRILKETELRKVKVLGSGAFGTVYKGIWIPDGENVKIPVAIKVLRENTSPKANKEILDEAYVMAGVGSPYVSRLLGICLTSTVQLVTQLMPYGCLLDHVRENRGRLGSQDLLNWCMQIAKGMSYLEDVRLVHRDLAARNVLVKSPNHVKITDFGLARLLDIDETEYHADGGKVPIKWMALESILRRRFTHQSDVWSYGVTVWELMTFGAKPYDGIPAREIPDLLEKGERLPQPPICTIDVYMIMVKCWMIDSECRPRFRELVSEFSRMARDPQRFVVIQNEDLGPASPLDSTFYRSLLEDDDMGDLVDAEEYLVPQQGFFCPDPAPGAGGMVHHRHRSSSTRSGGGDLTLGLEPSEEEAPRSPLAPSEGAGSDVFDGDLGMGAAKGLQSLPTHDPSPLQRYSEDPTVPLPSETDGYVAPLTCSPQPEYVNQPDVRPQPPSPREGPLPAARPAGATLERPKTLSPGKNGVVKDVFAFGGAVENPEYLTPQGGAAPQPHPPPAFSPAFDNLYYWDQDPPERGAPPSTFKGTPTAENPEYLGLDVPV
Sequence of NEK7 (Q8TDX7 whole entry): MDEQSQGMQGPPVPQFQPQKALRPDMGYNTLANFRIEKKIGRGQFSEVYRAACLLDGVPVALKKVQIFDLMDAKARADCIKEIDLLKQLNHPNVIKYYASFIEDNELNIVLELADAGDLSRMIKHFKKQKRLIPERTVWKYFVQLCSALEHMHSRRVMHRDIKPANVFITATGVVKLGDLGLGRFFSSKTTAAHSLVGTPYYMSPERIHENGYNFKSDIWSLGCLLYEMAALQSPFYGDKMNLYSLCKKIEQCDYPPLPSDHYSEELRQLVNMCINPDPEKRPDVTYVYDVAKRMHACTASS

Take `C=CC(=O)N1CCC([C@@H]2CCNc3c(C(N)=O)c(-c4ccc(Oc5ccccc5)cc4)nn32)CC1` [Zanubrutinib]: the remaining binding at 0.3 µM at RIPK5 (setting [2]) came out at 100%; at INSR (setting [2]) it was 100%; on EPHA2 (setting [2]), 67%; in experiment [1] (setting [2]) it was 87%; on ERBB2 (setting [2]), 16%; at NEK7 (setting [2]), 91%. Further, the remaining binding at 0.3 µM is 94% at TRKB (setting [2]) and 92% on PIP5K2C (setting [2]).

On to `CC#CC(=O)N1CC[C@@H](n2c(=O)n(-c3ccc(Oc4ccccc4)cc3)c3c(N)ncnc32)C1` [Tirabrutinib], for which the remaining binding at 0.3 µM at RIPK5 (setting [3]) is 93%; at INSR (setting [3]) it was 72%; at EPHA2 (setting [3]), 93%; in experiment [1] (setting [3]) it was 88%; on ERBB2 (setting [3]), 36%; on TRKB (setting [3]), 79%.

For the compound `C=CC(=O)N1CCC[C@@H](n2nc(-c3ccc(Oc4ccccc4)cc3)c3c(N)ncnc32)C1` [Ibrutinib], the remaining binding at 0.3 µM stood at 47% on RIPK5 (setting [4]); 92% at INSR (setting [4]); 97% at NEK7 (setting [4]); 76% on TRKB (setting [4]); 81% at PIP5K2C (setting [4]).

Take `CC#CC(=O)N1CCC[C@H]1c1nc(-c2ccc(C(=O)Nc3ccccn3)cc2)c2c(N)nccn12` [Acalabrutinib]: the remaining binding at 0.3 µM on INSR (setting [5]) was 93%; on EPHA2 (setting [5]) it was 94%; in experiment [1] (setting [5]) it was 64%; at ERBB2 (setting [5]), 11%; on NEK7 (setting [5]), 76%; at PIP5K2C (setting [5]), 90%.
